From ChEMBL document CHEMBL3124761, “Synthesis and biological evaluation of N,N'-squaramides with high in vivo efficacy and low toxicity: toward a low-cost drug against Chagas disease” (J Med Chem, 2014) come the findings set out here.

Molecules are shown by their SMILES.

Broadly, the IC50 is the concentration at which inhibition is half-maximal. In general, pKa refers to the pH at which an ionisable group is half protonated.

In data set [1] the test system is Mus musculus. Description: Toxicity in BALB/c albino mouse infected with blood trypomastigote stage of Trypanosoma cruzi assessed as decrease in alkaline phosphatase level in serum at 40 mg/kg, ip administered on day 7 to 12 post-infection measured after day 150 relative to control. The format is organism-based. On the set-up: dose 40 mg/kg, route intraperitoneal; scale not given: the % may be the effect or the level left. The conditions noted are these: in vivo.

In data set [2] the test system is Mus musculus. Description: Toxicity in BALB/c albino mouse infected with blood trypomastigote stage of Trypanosoma cruzi assessed as decrease in alkaline phosphatase level in serum at 25 mg/kg, ip administered on day 7 to 12 post-infection measured after day 120 relative to control. The format is organism-based. Set-up: dose 25 mg/kg, route intraperitoneal; scale not given: the % may be the effect or the level left. The conditions noted are these: in vivo.

The test system of data set [3] is Mus musculus. Description: Toxicity in BALB/c albino mouse infected with blood trypomastigote stage of Trypanosoma cruzi assessed as change in ALT/GPT level in serum at 500 mg/kg, ip relative to control. Particulars: in vivo. The data set is classed as organism-based. On the set-up: dose 500 mg/kg, route intraperitoneal.
In data set [4] the test system is Mus musculus. Description: Toxicity in BALB/c albino mouse infected with blood trypomastigote stage of Trypanosoma cruzi assessed as change in ALT/GPT level in serum at 25 mg/kg, ip administered on day 7 to 12 post-infection measured after day 120 relative to control. The format is organism-based. On the set-up: dose 25 mg/kg, route intraperitoneal. The conditions noted are these: in vivo.

In data set [5] the test system is Mus musculus. Description: Toxicity in BALB/c albino mouse infected with blood trypomastigote stage of Trypanosoma cruzi assessed as change in AST/GOT level in serum at 500 mg/kg, ip relative to control. Particulars: in vivo. The data set is classed as organism-based. Set-up: dose 500 mg/kg, route intraperitoneal.
Data set [6] concerns Mus musculus. Description: Toxicity in BALB/c albino mouse infected with blood trypomastigote stage of Trypanosoma cruzi assessed as increase in AST/GOT level in serum at 25 mg/kg, ip administered on day 7 to 12 post-infection measured after day 120 relative to control. The format is organism-based. Set-up: dose 25 mg/kg, route intraperitoneal. Particulars: in vivo.
The test system of data set [7] is Mus musculus. Description: Toxicity in BALB/c albino mouse infected with blood trypomastigote stage of Trypanosoma cruzi assessed as increase in total bilirubin level in serum at 25 mg/kg, ip administered on day 7 to 12 post-infection measured after day 120 relative to control. The format is organism-based. On the set-up: dose 25 mg/kg, route intraperitoneal. Particulars: in vivo.

Data set [8] deals with Mus musculus. Description: Toxicity in BALB/c albino mouse infected with blood trypomastigote stage of Trypanosoma cruzi assessed as increase in creatinephophokinase-MB level in serum at 500 mg/kg, ip relative to control. The conditions noted are these: in vivo. The data set is classed as organism-based. Set-up: dose 500 mg/kg, route intraperitoneal.
Data set [9] concerns Mus musculus. Description: Toxicity in BALB/c albino mouse infected with blood trypomastigote stage of Trypanosoma cruzi assessed as change in creatinephophokinase-MB level in serum at 25 mg/kg, ip administered on day 7 to 12 post-infection measured after day 120 relative to control. The format is organism-based. On the set-up: dose 25 mg/kg, route intraperitoneal. The conditions noted are these: in vivo.

The test system of data set [10] is Mus musculus. Description: Toxicity in BALB/c albino mouse infected with blood trypomastigote stage of Trypanosoma cruzi assessed as change in uric acid level in serum at 40 mg/kg, ip administered on day 7 to 12 post-infection measured after day 150 relative to control. The data set is classed as organism-based. On the set-up: dose 40 mg/kg, route intraperitoneal. The conditions noted are these: in vivo.

In data set [11] the test system is Mus musculus. Description: Toxicity in BALB/c albino mouse infected with blood trypomastigote stage of Trypanosoma cruzi assessed as increase in uric acid level in serum at 25 mg/kg, ip administered on day 7 to 12 post-infection measured after day 120 relative to control. The format is organism-based. Set-up: dose 25 mg/kg, route intraperitoneal. Particulars: in vivo.

For data set [12], the system named is Mus musculus. Description: Toxicity in BALB/c albino mouse infected with blood trypomastigote stage of Trypanosoma cruzi assessed as change in urea level in serum at 40 mg/kg, ip administered on day 7 to 12 post-infection measured after day 150 relative to control. The format is organism-based. Set-up: dose 40 mg/kg, route intraperitoneal. The conditions noted are these: in vivo.

For data set [13], the system named is Trypanosoma cruzi. Description: Trypanocidal activity against blood trypomastigote stage of Trypanosoma cruzi infected in immunosuppressed BALB/c albino mouse chronic chagas disease model assessed as cyclophosphamide-induced reactivation of parasitemia at 40 mg/kg, ip administered on day 7 to 12 post-infection measured after day 150 (reference value: 98.1%). The data set is classed as functional. Particulars: route intraperitoneal.

Data set [14] deals with Mus musculus. Description: Toxicity in BALB/c albino mouse assessed as mortality at 25 mg/kg, ip administered for 5 days. The conditions noted are these: in vivo, 120 h. The data set is classed as organism-based. Set-up: dose 25 mg/kg, route intraperitoneal.
The nature of data set [15]: Selectivity index, ratio of IC50 for African green monkey Vero cells to IC50 for amastigote stage of Trypanosoma cruzi IRHOD/CO/2008/SN3 infected in African green monkey Vero cells. Particulars: read-out: Ratio IC50. The format is toxicity, cell-based.
In data set [16] the test system is Trypanosoma cruzi. Description: Antitrypanosomal activity against amastigote stage of Trypanosoma cruzi IRHOD/CO/2008/SN3 infected in African green monkey Vero cells assessed as parasite growth inhibition after 72 hrs by Giemsa staining-based microscopic analysis. The format is functional, organism-based. The conditions noted are these: IRHOD/CO/2008/SN3, Vero.

For data set [17], the system named is Trypanosoma cruzi. Description: Antitrypanosomal activity against epimastigote stage of Trypanosoma cruzi IRHOD/CO/2008/SN3 assessed as parasite growth inhibition after 72 hrs by Neubauer hemocytometric chamber analysis. The format is functional, organism-based. Particulars: IRHOD/CO/2008/SN3, 72 h.
The nature of data set [18]: Dissociation constant, pKa of the compound in aqueous solution. The data set is classed as physicochemical.
In data set [19] the test system is Trypanosoma cruzi. Description: Antitrypanosomal activity against epimastigote stage of Trypanosoma cruzi IRHOD/CO/2008/SN3 assessed as change in excreted pyruvate level at IC25 after 96 hrs by 1H NMR analysis relative to control. The format is functional.

Regarding `CCCCNc1c(N(C)CCCN(C)C)c(=O)c1=O`, the Activity in the data set with Mus musculus [1] is reported as 30%; in the data set on Mus musculus [2] it was 10%; in the data set with Mus musculus [3] it was below 10%; in the data set with Mus musculus [4], below 10%; in the data set on Mus musculus [5], below 10%; with Mus musculus [6], 10%. The Activity with Mus musculus [7] was 10%; with Mus musculus [8] it was above 50%; with Mus musculus [9] it was below 10%; in the data set on Mus musculus [10], below 10%; with Mus musculus [11], 30%; in the data set on Mus musculus [12] it was below 10%. For the same compound, the Activity in the data set on Trypanosoma cruzi [13] is 3.1%; in the data set with Mus musculus [14], “Non-toxic”; with Trypanosoma cruzi [19], 81.5%. In addition, the selectivity ratio in data set [15] was found to be 53.3. The concentration for half-maximal inhibition (IC50) in the data set with Trypanosoma cruzi [16] was 8.5 µM; in the data set with Trypanosoma cruzi [17], 9.4 µM. Moreover, in data set [18], the pKa was 8.8.
